From EP0856015B1, “NEW POLYACRYLAMIDE MATRICES IN ELECTROPHORETIC AND CHROMATOGRAPHIC TECHNIQUES” (RIGHETTI, Pier Giorgio, priority 1995, dated 1997)

Key:
[1] = Hydrolysis kinetics of free monomers under mild alkaline conditions, residual monomer quantified by capillary electrophoresis; conditions: 0.1N NaOH, 70°C
[2] = Partitioning of monomers between water and n-octanol, aqueous phase analysed by CZE; assay type: physicochemical; conditions: 2 mM monomer, 25°C
Description: To that aim, aqueous solutions of these monomers have been subjected to partitioning against n-octanol. After partitioning, the aqueous phase is analyzed by capillary electrophoresis and the molar ratio of the various monomers in the two phases determined. […] Hydrophobicity scale of acrylamide and N-substituted derivatives. Each monomer was dissolved in aqueous solution (3.5 mL) at a concentration of 2 mM and mixed with an equal volume of n-octanol for 2 min. After phase separation, the aqueous solution is centrifuged for 75 min at 2000 rpm. All operations at 25°C. The solution, after dilution, is added with internal standard (2.5 mM of pK 9.3 Immobiline) and analyzed by CZE. For abbreviations see Fig. 1. Other abbreviations: MMA: […] ACM: N-acryloyl morpholine; […]: dideoxy […].

Row | degradation kinetics [1] | hydrophilicity (from partition coefficients P) [2] | logP ([2]; read-out: partition coefficient P (converted)) | hydrolysis constant (K) [1] [M⁻¹ s⁻¹] | hydrolysis constant, times smaller than that of acrylamide [1] [times] | SMILES
1 | a more rapid degradation kinetic | – | – | – | – | C=CC(=O)N1CCOCC1 [N-acryloyl morpholine, reference compound]
2 | – | close to that of acrylamide | -0.62 | – | – | C=CC(=O)NCCCCO [AAB]
3 | zero-order kinetics | by far the most hydrophilic molecule | – | – | – | C=CC(=O)NC(CO)(CO)CO [Trisacryl, N-acryloyl-2-amino-2-hydroxymethyl-1,3 propandiol, reference compound]
4 | first order kinetics | twice as hydrophilic as acrylamide | – | 0.00013 | 8 | C=CC(=O)NCCCO [AAP]
